Measurements published in US12162867B2, “Inhibitors of RNA helicase DHX9 and uses thereof” (ACCENT THERAPEUTICS, INC., priority 2022, dated 2024).
Like-named read-outs stand apart in the source and are kept apart here.

System: circBRIP1 in HCT116 cells
Experiment: DHX9 circBRIP1 cellular target engagement SYBR Green assay (qPCR)
Format: cell-based
Details: read-out: DHX9 Cellular Target Engagement EC50
[1] = Homo sapiens, HCT-116, circBRIP1, HCT116 cells, SyBr assay (marked ^+)
[2] = Homo sapiens, HCT-116, circBRIP1, HCT116 cells, ^+ SyBr assay was used

| SMILES | EC50 [1] [nM] | other results |
| --- | --- | --- |
| Cn1cc(C(=O)Nc2cc(Cl)cc(NS(C)(=O)=O)c2)cc1N1CCCCC1=O [Example 158, N-(3-chloro-5-(methylsulfonamido)phenyl)-1-methyl-5-(2-oxopiperidin-1-yl)-1H-pyrrole-3-carboxamide] | 1290 | – |
| Cc1cc(C(=O)Nc2cc(Cl)cc(NS(C)(=O)=O)c2)cn1-c1ncc(C(F)(F)F)cn1 [Example 426] | – | EC50 [2]: 226 nM |
| CCc1sc(C(=O)Nc2cc(Cl)cc(NS(C)(=O)=O)c2)cc1-c1ccccn1 [Example 232] | – | EC50 (circBRIP1, HCT116 cells, SyBr assay (marked ^+)): 61 nM |
| CS(=O)(=O)Nc1cc(Cl)cc(NC(=O)c2cc(-c3cccnc3)cs2)c1 [Example 116, N-(3-chloro-5-(methylsulfonamido)phenyl)-4-(pyridin-3-yl)thiophene-2-carboxamide] | 734 | – |
| CS(=O)(=O)Nc1cc(Cl)cc(NC(=O)c2cnn(-c3ccc(C4CCOCC4)cn3)c2)c1 [Example 190] | 373 | – |
| CS(=O)(=O)Nc1cc(Cl)cc(NC(=O)c2cnn(-c3c(F)cccc3OCc3cccc(F)c3)c2)c1 [Example 211] | 189 | – |
| CS(=O)(=O)Nc1cc(Br)cc(NC(=O)c2cc(Cc3ccc[nH]3)cs2)c1 [Example 104, 4-((1H-pyrrol-2-yl)methyl)-N-(3-bromo-5-(methylsulfonamido)phenyl)-thiophene-2-carboxamide] | 5490 | – |
| Cc1cc(C(=O)Nc2cc(Cl)cc(NS(C)(=O)=O)c2)cn1-c1ncc(N2CCOCC2)cc1F [Example 412] | – | EC50 [2]: 96.1 nM |
| CS(=O)(=O)Nc1cc(Cl)cc(NC(=O)c2cc(C(=O)N3CCN(c4ccccc4)CC3)n(-c3ccccn3)c2)c1 [Example 654] | – | EC50 [2]: 5310 nM |
| Cn1cc(C(=O)Nc2cc(Cl)cc(NS(C)(=O)=O)c2)cc1-c1ccccc1 [Example 109] | 437 | – |
| CS(=O)(=O)Nc1cc(Cl)cc(NC(=O)c2cnn(-c3ncccc3C(F)(F)F)c2)c1 [Example 47] | 6730 | – |
| CS(=O)(=O)Nc1cc(Cl)cc(NC(=O)c2cc3c(C(F)(F)F)cccn3c2)c1 [Example 302] | 1930 | – |
| CS(=O)(=O)Nc1cc(Br)cc(NC(=O)c2cnn(-c3ccc(C(F)(F)F)cn3)c2)c1 [Example 43] | 4710 | – |
| CS(=O)(=O)Nc1cc(Cl)cc(NC(=O)c2cnn(-c3ncccc3COc3cncc(F)c3)c2)c1 [Example 262] | 439 | – |
| Cc1sc(C(=O)Nc2cc(Cl)cc(NS(C)(=O)=O)c2)cc1-c1ccccc1 [Example 11] | 851 | – |
| Cc1sc(C(=O)Nc2cc(Cl)cc(NS(C)(=O)=O)c2)cc1-c1ncc(F)cc1-c1ccc(=O)n(C)c1 [Example 606] | – | EC50 [2]: 1510 nM |
| COCc1cc(C(=O)Nc2cc(Cl)cc(NS(C)(=O)=O)c2)cn1-c1ncccc1F [Example 682] | – | EC50 [2]: 149 nM |
| Cc1cc(C(=O)Nc2cc(Cl)cc(NS(C)(=O)=O)c2)cn1-c1ccc(N(C)C2CCOC2)cn1 (stereo not shown) [Example 674] | – | EC50 [2]: 28.9 nM |
| CS(=O)(=O)Nc1cc(Cl)cc(NC(=O)c2cc3cccc(F)c3s2)c1 [Example 297] | > 10000 | – |
| Cc1cccc2cc(C(=O)Nc3cc(Cl)cc(NS(C)(=O)=O)c3)cn12 [Example 304] | 5980 | – |
| CS(=O)(=O)Nc1cc(Cl)cc(NC(=O)c2cccc(-c3cccc(C#N)c3)c2)c1 [Example 13] | 7970 | – |
| CS(=O)(=O)Nc1cc(Cl)cc(NC(=O)c2c[nH]c(-c3ccccc3)n2)c1 [Example 6] | 9340 | – |

| SMILES | EC50 [1] [nM] | other results |
| --- | --- | --- |
| CN1CCN(c2csc(C(=O)Nc3cc(Cl)cc(NS(C)(=O)=O)c3)c2)CC1=O [Example 661] | – | EC50 [2]: > 10000 nM |
| Cn1cc(C(=O)Nc2cc(Cl)cc(NS(C)(=O)=O)c2)cc1-c1ccc(C(F)(F)F)cn1 [Example 569] | – | EC50 [2]: 146 nM |
| Cc1cccnc1-n1cc(C(=O)Nc2cc(Cl)cc(NS(C)(=O)=O)c2)cn1 [Example 54] | 953 | – |
| Cc1sc(C(=O)Nc2cc(Cl)cc(NS(C)(=O)=O)c2)cc1-c1c(F)cccc1OCc1ccccc1 [Example 240] | 228 | – |
| CS(=O)(=O)Nc1cc(Cl)cc(NC(=O)c2cc(C(=O)N3CCN(CC(F)(F)F)CC3)n(-c3ccccn3)c2)c1 [Example 649] | – | EC50 [2]: 9930 nM |
| Cn1cc(C(=O)Nc2cc(Cl)cc(NS(C)(=O)=O)c2)cc1-c1ccc(Cl)cn1 [Example 576] | – | EC50 [2]: 128 nM |
| Cc1sc(C(=O)Nc2cc(Cl)cc(NS(C)(=O)=O)c2)cc1-c1nccn1CCc1ccccc1 [Example 698] | – | EC50 [2]: 2490 nM |
| Cc1sc(C(=O)Nc2cc(Cl)cc(NS(C)(=O)=O)c2)cc1-n1cc(F)cn1 [Example 439] | – | EC50 [2]: 199 nM |
| Cc1ncccc1-c1cc(F)cnc1-c1cc(C(=O)Nc2cc(Cl)cc(NS(C)(=O)=O)c2)sc1C [Example 608] | – | EC50 [2]: 422 nM |
| Cn1cc(C(=O)Nc2cc(Cl)cc(NS(C)(=O)=O)c2)cc1-c1ncc(F)cc1OCc1cnco1 [Example 268] | 182 | – |
| CCS(=O)(=O)Nc1cc(Cl)cc(NC(=O)c2cc(-c3ncc(F)cc3C)cs2)c1 [Example 226] | 388 | – |
| CS(=O)(=O)Nc1cc(Cl)cc(NC(=O)c2cc3ccc(F)cc3s2)c1 [Example 294] | > 10000 | – |
| CS(=O)(=O)Nc1cc(Cl)cc(NC(=O)c2cc3cc(Cl)ccc3s2)c1 [Example 298] | > 10000 | – |
| CN(C)S(=O)(=O)c1ccc(-n2cc(C(=O)Nc3cc(Cl)cc(NS(C)(=O)=O)c3)cn2)nc1 [Example 200] | 1310 | – |
| Cc1cc(C(=O)Nc2cc(Cl)cc(NS(=O)(=O)C3CC3)c2)cn1-c1ccc(N2CCOCC2)cn1 [Example 247] | 2240 | – |
| CS(=N)(=O)Nc1cc(Br)cc(NC(=O)c2cc(-c3ccccn3)cs2)c1 (stereo not shown) [Example 121, N-(3-bromo-5-(methylsulfonoamidimidamido)phenyl)-4-(pyridin-2-yl)thiophene-2-carboxamide] | 5430 | – |
| CC(C)(C)OC(=O)N1CCC(n2cc(C(=O)Nc3cc(Cl)cc(NS(C)(=O)=O)c3)cn2)CC1 [Example 136] | 6410 | – |
| Cn1cc(C(=O)Nc2cc(Cl)cc(NS(C)(=O)=O)c2)cc1-c1ccc(C#N)cn1 [Example 570] | – | EC50 [2]: 224 nM |
| CS(=O)(=O)Nc1cc(Cl)cc(NC(=O)c2cnn(-c3ncccc3S(C)(=O)=O)c2)c1 [Example 199] | > 10000 | – |
| CN1CCN(C(=O)c2cc(C(=O)Nc3cc(Cl)cc(NS(C)(=O)=O)c3)cn2-c2ccccn2)CC1 [Example 665] | – | EC50 [2]: 4990 nM |
| Cc1ccc(C(=O)Nc2cc(Br)cc(NS(C)(=O)=O)c2)cc1-n1cccn1 [Example 10] | 12300 | – |
| CS(=O)(=O)Nc1cc(Cl)cc(NC(=O)c2cc(C(F)(F)F)n(-c3ccc(N4CCOCC4)cn3)c2)c1 [Example 271] | 761 | – |

Second part, led by results:

| EC50 [1] [nM] | SMILES | other results |
| --- | --- | --- |
| 640 | CS(=O)(=O)Nc1cc(Cl)cc(NC(=O)c2cc(-c3ncccc3CC(=O)N3CCC3)cs2)c1 [Example 382] | – |
| 189 | CCS(=O)(=O)Nc1cc(Cl)cc(NC(=O)c2cc(-c3ncc(F)cn3)cs2)c1 [Example 343] | – |
| 2670 | Cc1cc(C)c2cc(C(=O)Nc3cc(Cl)cc(NS(C)(=O)=O)c3)cn2c1 [Example 328] | – |
| 96.1 | Cc1cc(C(=O)Nc2cc(Cl)cc(NS(C)(=O)=O)c2)cn1-c1ncc(N2CCOCC2)cc1F [Example 320] | – |
| > 10000 | CC1(C)CC(n2cc(C(=O)Nc3cc(Cl)cc(NS(C)(=O)=O)c3)cn2)CCN1 (stereo not shown) [Example 315] | – |
| 9970 | CS(=O)(=O)Nc1cc(Cl)cc(NC(=O)c2cnn(C3CC4(C3)CN(CC(F)(F)F)C4)c2)c1 [Example 312] | – |
| > 10000 | CC(=O)N1CCC(n2cc(C(=O)Nc3cc(Cl)cc(NS(C)(=O)=O)c3)cn2)CC1 [Example 317] | – |
| > 10000 | CC(=O)NC1CC2(C1)CC(n1cc(C(=O)Nc3cc(Cl)cc(NS(C)(=O)=O)c3)cn1)C2 (stereo not shown) [Example 310] | – |
